molecular target: T1, GFRα1-RET (Homo sapiens, UniProt P56159); test: Luciferase assay: activation of Elk1 signaling in reporter-gene cells expressing GFRα1-RET (MG87 murine fibroblast stably transfected with PathDetect Elk-1, GFRα1, and RET); format: cell-based; conditions: Table 4; MG87 murine fibroblasts with PathDetect Elk-1, GFRα1, RET; 6 concentrations, duplicate, two times independently; agonist/activator activity; read-out: Luciferase Assay EC50
T1 construct: expressed in transfected cells; host or cells: MG87 murine fibroblast
T1 sequence (P56159 25-429 limits assumed): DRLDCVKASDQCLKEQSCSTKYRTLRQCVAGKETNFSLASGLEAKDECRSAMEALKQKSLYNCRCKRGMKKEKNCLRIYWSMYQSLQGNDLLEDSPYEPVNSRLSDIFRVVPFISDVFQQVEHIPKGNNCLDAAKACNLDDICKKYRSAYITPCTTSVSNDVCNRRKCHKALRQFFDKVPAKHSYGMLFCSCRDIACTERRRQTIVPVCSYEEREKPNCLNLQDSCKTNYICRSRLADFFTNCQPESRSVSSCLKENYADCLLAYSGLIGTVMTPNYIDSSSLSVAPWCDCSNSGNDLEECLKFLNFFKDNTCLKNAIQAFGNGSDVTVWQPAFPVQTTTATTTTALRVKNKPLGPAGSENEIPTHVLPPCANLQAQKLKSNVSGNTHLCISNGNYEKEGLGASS
T1 sequence (P07949 29-1114 partner): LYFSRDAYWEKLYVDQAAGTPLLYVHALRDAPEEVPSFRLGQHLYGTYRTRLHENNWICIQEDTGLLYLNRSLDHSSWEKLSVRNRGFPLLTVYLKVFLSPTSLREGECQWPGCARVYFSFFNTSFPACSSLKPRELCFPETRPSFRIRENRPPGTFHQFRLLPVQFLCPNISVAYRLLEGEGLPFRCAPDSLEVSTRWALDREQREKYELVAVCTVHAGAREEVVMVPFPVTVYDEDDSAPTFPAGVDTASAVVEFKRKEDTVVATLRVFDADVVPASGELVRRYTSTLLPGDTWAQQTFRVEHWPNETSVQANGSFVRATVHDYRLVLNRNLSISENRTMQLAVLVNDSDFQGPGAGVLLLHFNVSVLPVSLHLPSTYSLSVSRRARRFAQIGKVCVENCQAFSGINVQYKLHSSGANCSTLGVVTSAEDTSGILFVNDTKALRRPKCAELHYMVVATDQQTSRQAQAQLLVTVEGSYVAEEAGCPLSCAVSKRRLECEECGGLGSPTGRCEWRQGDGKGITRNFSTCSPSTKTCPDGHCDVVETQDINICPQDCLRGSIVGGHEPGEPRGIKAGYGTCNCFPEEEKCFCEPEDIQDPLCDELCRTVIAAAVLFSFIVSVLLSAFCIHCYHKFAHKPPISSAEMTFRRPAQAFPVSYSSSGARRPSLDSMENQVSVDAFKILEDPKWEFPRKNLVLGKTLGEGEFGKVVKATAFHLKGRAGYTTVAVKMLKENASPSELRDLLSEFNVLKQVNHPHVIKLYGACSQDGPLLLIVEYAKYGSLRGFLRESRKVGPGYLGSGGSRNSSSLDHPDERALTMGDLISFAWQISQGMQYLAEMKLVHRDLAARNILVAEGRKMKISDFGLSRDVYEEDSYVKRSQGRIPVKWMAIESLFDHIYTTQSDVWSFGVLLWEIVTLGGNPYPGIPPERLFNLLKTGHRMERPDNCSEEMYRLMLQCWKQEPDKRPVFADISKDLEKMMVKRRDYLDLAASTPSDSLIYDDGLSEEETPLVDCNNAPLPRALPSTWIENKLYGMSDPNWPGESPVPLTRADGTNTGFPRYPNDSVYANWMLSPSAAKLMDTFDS
Method: The purpose of this experiment was to evaluate the GFRα1-RET activity of the compounds 001-060 according to the invention.
The compounds were tested for their activating activity of Elk1 signaling using the previously developed reporter-gene-based system in cells expressing GFRα1-RET (MG87 murine fibroblast stably transfected with PathDetect Elk-1, GFRα1, and RET) disclosed in Sidorova, Y. A. et al.: “Persephin signaling through GFRα1: The potential for the treatment of Parkinson's disease.” Molecular and Cellular Neuroscience, July 2010, Vol. 44, pp. 223-232. DOI: 10.1016/j.mcn.2010.03.009. For EC50 determination, a dose-response test was performed using 6 concentrations of each tested compound. Dose-response curves were fitted using the sigmoidal dose-response (variable slope) analysis in GraphPad Prism program (Graph Pad Inc) and EC50 of agonist/activator activity was calculated. Dose-response experiments were all performed in duplicate, two times independently.
The compounds were tested for their activating activity of Elk1 signaling using the same materials and methods than for the compounds according to the invention (Example 2 herein, section “Materials and methods”).

| SMILES | EC50 [µM] |
| --- | --- |
| CCN(CC)S(=O)(=O)c1ccc(OC)c(N2CCN(C(=O)c3cc(F)c(F)cc3Cl)CC2)c1 [Compound 002, 3-[4-(2-chloro-4,5-difluoro-benzoyl)piperazin-1-yl]-N,N-diethyl-4-methoxy-benzenesulfonamide] | 5 to 10 |
| COc1ccc(S(=O)(=O)N2CCCC(Cc3ccccc3)C2)cc1N1CCN(C(=O)c2ccc(F)cc2Cl)CC1 (centres unmarked) [Compound 027, (2-chloro-4-fluoro-phenyl)-[4-[2-methoxy-5-[[3-benzyl-1-piperidyl]sulfonyl]phenyl]piperazin-1-yl]methanone] | 1 to 5 |
| COc1ccc(S(=O)(=O)N2CCC(Cc3ccccc3)C2)cc1N1CCN(C(=O)c2ccc(F)cc2Cl)CC1 (centres unmarked) [Compound 029, (2-chloro-4-fluoro-phenyl)-[4-[2-methoxy-5-[3-benzylpyrrolidin-1-yl]sulfonyl-phenyl]piperazin-1-yl]methanone] | 5 to 10 |
| COc1ccc(S(=O)(=O)N(C)Cc2ccc(F)cc2)cc1N1CCN(C(=O)c2ccc(F)cc2Cl)CC1 [Compound 021, 3-[4-(2-chloro-4-fluoro-benzoyl)piperazin-1-yl]-N-[(4-fluorophenyl)methyl]-4-methoxy-N-methyl-benzenesulfonamide] | 5 to 10 |
| COc1ccc(S(=O)(=O)N2CCC(c3ccccc3)CC2)cc1N1CCN(C(=O)c2ccc(F)cc2Cl)CC1 [Compound 025, (2-chloro-4-fluoro-phenyl)-[4-[2-methoxy-5-[(4-phenyl-1-piperidyl)sulfonyl]phenyl]piperazin-1-yl]methanone] | < 1 |
| COc1ccc(S(=O)(=O)N2CCC(O)(Cc3ccccc3)CC2)cc1N1CCN(C(=O)c2ccc(F)cc2Cl)CC1 [Compound 012, [4-[5-[(4-benzyl-4-hydroxy-1-piperidyl)sulfonyl]-2-methoxy-phenyl]piperazin-1-yl]-(2-chloro-4-fluoro-phenyl)methanone] | 5 to 10 |
| COc1ccc(S(=O)(=O)N(C)C2(C)COC2)cc1N1CCN(C(=O)c2ccc(F)cc2Cl)CC1 [Compound 018, 3-[4-(2-chloro-4-fluoro-benzoyl)piperazin-1-yl]-4-methoxy-N-methyl-N-(3-methyloxetan-3-yl)benzenesulfonamide] | 10 to 50 |
| COc1ccc(S(=O)(=O)N(C)C2CCCCC2)cc1N1CCN(C(=O)c2ccc(F)cc2Cl)CC1 [Compound 017, 3-[4-(2-chloro-4-fluoro-benzoyl)piperazin-1-yl]-N-cyclohexyl-4-methoxy-N-methyl-benzenesulfonamide] | 1 to 5 |
| COc1ccc(S(=O)(=O)N2CCC(O)(c3ccccc3)CC2)cc1N1CCN(C(=O)c2ccc(F)cc2Cl)CC1 [Compound 011, (2-chloro-4-fluoro-phenyl)-[4-[5-[(4-hydroxy-4-phenyl-1-piperidyl)sulfonyl]-2-methoxy-phenyl]piperazin-1-yl]methanone] | 5 to 10 |
| COc1ccc(S(=O)(=O)N2CCC(Cc3ccccc3)CC2)cc1N1CCN(C(=O)c2ncc(F)cc2Cl)CC1 [Compound 008, [4-[5-[(4-benzyl-1-piperidyl)sulfonyl]-2-methoxy-phenyl]piperazin-1-yl]-(3-chloro-5-fluoro-2-pyridyl)methanone] | 5 to 10 |
| COc1ccc(S(=O)(=O)N2CCC(Cc3ccccc3)CC2)cc1N1CCN(C(=O)c2cc(F)c(F)cc2Cl)CC1 [Compound 009, [4-[5-[(4-benzyl-1-piperidyl)sulfonyl]-2-methoxy-phenyl]piperazin-1-yl]-(2-chloro-4,5-difluoro-phenyl)methanone] | < 1 |
| CCCN(C)S(=O)(=O)c1ccc(OC)c(N2CCN(C(=O)c3cc(F)c(F)cc3Cl)CC2)c1 [Compound 005, 3-[4-(2-chloro-4,5-difluoro-benzoyl)piperazin-1-yl]-4-methoxy-N-methyl-N-propyl-benzenesulfonamide] | 1 to 5 |
| CCCN(C)S(=O)(=O)c1ccc(OC)c(N2CCN(C(=O)c3ccc(F)cc3C(F)F)CC2)c1 [Compound 006, 3-[4-[2-(difluoromethyl)-4-fluoro-benzoyl]piperazin-1-yl]-4-methoxy-N-methyl-N-propyl-benzenesulfonamide] | 1 to 5 |
| COc1ccc(S(=O)(=O)N2CCC(CCc3ccccc3)CC2)cc1N1CCN(C(=O)c2ccc(F)cc2Cl)CC1 [Compound 024, (2-chloro-4-fluoro-phenyl)-[4-[2-methoxy-5-[[4-(2-phenylethyl)-1-piperidyl]sulfonyl]phenyl]piperazin-1-yl]methanone] | < 1 |
| COc1ccc(S(=O)(=O)N2CCN(Cc3ccccc3)CC2)cc1N1CCN(C(=O)c2ccc(F)cc2Cl)CC1 [Compound 013, [4-[5-(4-benzylpiperazin-1-yl)sulfonyl-2-methoxy-phenyl]piperazin-1-yl]-(2-chloro-4-fluoro-phenyl)methanone] | 5 to 10 |

Second part, the compound after the results:

| EC50 [µM] | SMILES |
| --- | --- |
| < 1 | CN(CC1CC1)S(=O)(=O)c1cc(Cl)c(O)c(N2CCN(C(=O)c3ccc(F)cc3Cl)CC2)c1 [Compound 059, 3-chloro-5-[4-(2-chloro-4-fluoro-benzoyl)piperazin-1-yl]-N-(cyclopropylmethyl)-4-hydroxy-N-methyl-benzenesulfonamide] |
| 1 to 5 | COc1ccc(S(=O)(=O)N2CCCC(OCc3ccccc3)C2)cc1N1CCN(C(=O)c2ccc(F)cc2Cl)CC1 (centres unmarked) [Compound 038, (2-chloro-4-fluoro-phenyl)-[4-[2-methoxy-5-[[3-benzyloxy-1-piperidyl]sulfonyl]phenyl]piperazin-1-yl]methanone] |
| 10 to 50 | COc1ccc(S(=O)(=O)N(C)CCCC(F)(F)F)cc1N1CCN(C(=O)c2ccc(F)cc2Cl)CC1 [Compound 037, 3-[4-(2-chloro-4-fluoro-benzoyl)piperazin-1-yl]-4-methoxy-N-methyl-N-(4,4,4-trifluorobutyl)benzenesulfonamide] |
| < 1 | Cc1cc(S(=O)(=O)N2CCC(c3ccccc3)CC2)cc(N2CCN(C(=O)c3ccc(F)cc3Cl)CC2)c1O [Compound 055, (2-chloro-4-fluoro-phenyl)-[4-[2-hydroxy-3-methyl-5-[(4-phenyl-1-piperidyl)sulfonyl]phenyl]piperazin-1-yl]methanone] |
| 1 to 5 | COc1ccc(S(=O)(=O)N2CCN(CCc3ccc(Cl)cc3)CC2)cc1N1CCN(C(=O)c2ccc(F)cc2Cl)CC1 [Compound 051, (2-chloro-4-fluoro-phenyl)-[4-[5-[4-[2-(4-chlorophenyl)ethyl]piperazin-1-yl]sulfonyl-2-methoxy-phenyl]piperazin-1-yl]methanone] |
| 1 to 5 | CCCN(C)S(=O)(=O)c1ccc(OCc2ccccc2)c(N2CCN(C(=O)c3ccc(F)cc3C(F)(F)F)CC2)c1 [Compound 047, 4-benzyloxy-3-[4-[4-fluoro-2-(trifluoromethyl)benzoyl]piperazin-1-yl]-N-methyl-N-propyl-benzenesulfonamide] |
| 5 to 10 | COc1ccc(S(=O)(=O)N(C)C(C)(C)C)cc1N1CCN(C(=O)c2ccc(F)cc2Cl)CC1 [Compound 033, N-tert-butyl-3-[4-(2-chloro-4-fluoro-benzoyl)piperazin-1-yl]-4-methoxy-N-methyl-benzenesulfonamide] |
| 1 to 5 | COc1ccc(S(=O)(=O)N2CCN(CCc3ccc(F)cc3)CC2)cc1N1CCN(C(=O)c2ccc(F)cc2Cl)CC1 [Compound 052, (2-chloro-4-fluoro-phenyl)-[4-[5-[4-[2-(4-fluorophenyl)ethyl]piperazin-1-yl]sulfonyl-2-methoxy-phenyl]piperazin-1-yl]methanone] |
| 1 to 5 | COc1ccc(S(=O)(=O)NC(C)(C)C)cc1N1CCN(C(=O)c2ccc(F)cc2Cl)CC1 [Compound 032, N-tert-butyl-3-[4-(2-chloro-4-fluoro-benzoyl)piperazin-1-yl]-4-methoxy-benzenesulfonamide] |
| 10 to 50 | CCN(CC)S(=O)(=O)c1cccc(N2CCN(C(=O)c3ccc(F)cc3C(F)(F)F)CC2)c1 [Compound 041, N,N-diethyl-3-[4-[4-fluoro-2-(trifluoromethyl)benzoyl]piperazin-1-yl]benzenesulfonamide] |
| 5 to 10 | CCCN(C)S(=O)(=O)c1ccc(OCCOC)c(N2CCN(C(=O)c3ccc(F)cc3C(F)(F)F)CC2)c1 [Compound 046, 3-[4-[4-fluoro-2-(trifluoromethyl)benzoyl]piperazin-1-yl]-4-(2-methoxyethoxy)-N-methyl-N-propyl-benzenesulfonamide] |
| < 1 | Cc1cc(S(=O)(=O)N2CCC(c3ccc(F)cc3)CC2)cc(N2CCN(C(=O)c3ccc(F)cc3Cl)CC2)c1O [Compound 056, (2-chloro-4-fluoro-phenyl)-[4-[5-[[4-(4-fluorophenyl)-1-piperidyl]sulfonyl]-2-hydroxy-3-methyl-phenyl]piperazin-1-yl]methanone] |
| 1 to 5 | COc1ccc(S(=O)(=O)N2CCN(CC(C)c3ccccc3)CC2)cc1N1CCN(C(=O)c2ccc(F)cc2Cl)CC1 (racemic) [Compound 053, (2-chloro-4-fluoro-phenyl)-[4-[2-methoxy-5-[4-[rac-(2R)-2-phenylpropyl]piperazin-1-yl]sulfonyl-phenyl]piperazin-1-yl]methanone] |

same assay, conditions: Table 6, comparison with comparative compounds; values for 001, 009, 010 reported from Table 4; MG87 GFRα1-RET cells; read-out: Luciferase Assay EC50

| EC50 [µM] | SMILES |
| --- | --- |
| > 50 | CCN(CC)S(=O)(=O)c1ccc(OC)c(N2CCN(C(=O)c3cc(F)ccc3C(F)(F)F)CC2)c1 [Compound C02, N,N-diethyl-3-(4-(5-fluoro-2-(trifluoromethyl)benzoyl)piperazin-1-yl)-4-methoxybenzenesulfonamide, reference compound] |
| < 1 | COc1ccc(S(=O)(=O)N2CCC(Cc3ccccc3)CC2)cc1N1CCN(C(=O)c2cc(F)c(F)cc2Cl)CC1 [Compound 009, [4-[5-[(4-benzyl-1-piperidyl)sulfonyl]-2-methoxy-phenyl]piperazin-1-yl]-(2-chloro-4,5-difluoro-phenyl)methanone] |

same assay, conditions: text statement on Table 6 results, GFRα1-RET luciferase assay; read-out: EC50

| EC50 [µM] | SMILES |
| --- | --- |
| > 50 | CCN(CC)S(=O)(=O)c1ccc(OC)c(N2CCN(C(=O)c3cc(F)ccc3C(F)(F)F)CC2)c1 [Compound C02, N,N-diethyl-3-(4-(5-fluoro-2-(trifluoromethyl)benzoyl)piperazin-1-yl)-4-methoxybenzenesulfonamide, reference compound] |
| < 10 | COc1ccc(S(=O)(=O)N2CCC(Cc3ccccc3)CC2)cc1N1CCN(C(=O)c2cc(F)c(F)cc2Cl)CC1 [Compound 009, [4-[5-[(4-benzyl-1-piperidyl)sulfonyl]-2-methoxy-phenyl]piperazin-1-yl]-(2-chloro-4,5-difluoro-phenyl)methanone] |
